{"source": "paper PMC7763843", "about": "“Cytochrome P450 Expression and Chemical Metabolic Activity before Full Liver Development in Zebrafish” (Pharmaceuticals, 2020)", "key": {"zebrafish": {"tested_on": "zebrafish", "conditions": "cited from earlier work"}, "[1]": {"tested_on": "zebrafish embryos and larvae", "assay": "Maximum test solution concentration causing neither morphological nor behavioral abnormalities", "format": "in vivo, Danio rerio", "conditions": "exposure from 5 hpf up to 120 hpf", "procedure": "(§3) To calculate the content of each compound per one whole zebrafish embryo or larva (i.e., the Ce), we first determined the maximum test solution concentrations that caused neither morphological nor behavioral abnormalities during exposure. […] Beginning at 5 hpf, normal embryos were exposed to the test solution (>1 mL/embryo) in a glass container. The plastic lid of the container was kept closed, and the embryos and larvae were maintained for up to 120 hpf at 28 ± 1 °C on a 14-h light–10-h dark cycle."}, "[2]": {"tested_on": "whole zebrafish embryo or larva", "assay": "Content of test compound per one whole zebrafish embryo or larva (Ce) every 24 hpf", "format": "in vivo, Danio rerio", "conditions": "mean ± SD, n = 3; for Ce per one whole embryo or larva: 120 hpf, exposure from 5 hpf (caffeine 10 mg/L, diclofenac 3.2 mg/L, testosterone 3.0 mg/L), maximum for caffeine", "experimental": "The chorions of embryos were removed with forceps under a microscope before sampling for the Ce measurements. The dechorionated embryos (24 hpf) or the larvae (from 48 hpf onwards) were individually transferred through four beakers (for about 10 s per beaker) containing 500 mL of fresh dechlorinated tap water to remove chemical residues on the body surface. After that step, the embryos or larvae were homogenized with a silicone pestle in a 1.5 mL sampling tube containing a mixed solvent of the same composition as each liquid chromatography eluent to extract the test compound. The dechorionated embryos or the larvae were homogenized to extract the test compound. […] The supernatant was collected in a volumetric flask. The extraction procedure was performed twice, and the supernatants from the two batches were mixed and brought up to a volume of 1 mL with the mixed solvent of the same composition as each liquid chromatography eluent to extract the test compound.\nData were acquired in positive ion mode by using multiple reaction monitoring (MRM)."}, "cyp2r1 mRNA": {"tested_on": "cyp2r1 mRNA", "experimental": "(§1) Embryos were dechorionized, except in the case of those exposed to TCDD due to high transparency. […] 1,7-Dimethylxanthine, 4′-OHDF, 5-OHDF, and 6β-hydroxytestosterone were obtained from Sigma-Aldrich. DMSO was purchased from Nacalai Tesque (Kyoto, Japan).\n(§2) Whole-mount in situ hybridization was performed as described previously. Paraformaldehyde-fixed embryos were hybridized with digoxigenin-incorporated antisense RNA probes of CYP subtypes at 65 °C overnight (DIG (digoxigenin) RNA Labeling Kit, Sigma-Aldrich). To obtain the CYP probes, CYP DNAs were amplified by PCR reaction with KOD FX Neo enzyme solution (Toyobo) with the primer sets listed in Table S2. This was followed by subcloning to pTAC2 TA vector (BioDynamics, Tokyo, Japan) and in vitro transcription with SP6 RNA polymerase (New England Biolabs, Ipswich, MA, USA). Following hybridization and washing, the embryos were incubated with anti-DIG antibody conjugated with alkaline phosphatase (Sigma-Aldrich) at 4 °C overnight. The color reaction was performed by incubation in BM Purple substrate or Fast Red (Sigma-Aldrich)."}, "cyp2n13 mRNA": {"tested_on": "cyp2n13 mRNA", "conditions": "55 hpf larvae; exposure from 30 hpf; 100 µM rifampicin or phenobarbital", "experimental": "as §1, §2"}, "[3]": {"tested_on": "cyp2n13, 2r1, 2y3, and 3a65", "assay": "qPCR of CYP subtypes in 55 hpf larvae after inducer exposure", "conditions": "100 µM", "source_text": "as §1"}, "cyp2y3 mRNA": {"tested_on": "cyp2y3 mRNA", "conditions": "55 hpf larvae; exposure from 30 hpf; 100 µM rifampicin or phenobarbital", "experimental": "as §1, §2"}, "[4]": {"set-up": "method as in PMID 11448232, PMID 7714751", "conditions": "cited from earlier work"}, "[5]": {"tested_on": "whole zebrafish embryo or larva", "assay": "Contents of test compound metabolites per whole zebrafish embryo or larva", "conditions": "for Ce of caffeine per whole embryo or larva: metabolite experiment (Figure 6A), exposure to caffeine 10 mg/L", "procedure": "as §3\nThen, the mixture was centrifuged at 20,000× g for 15 min at 10 °C with a refrigerated centrifuge (CR21N, Hitachi Koki). The supernatant was collected in a sampling tube. The extraction procedure was performed twice. The supernatants of two batches were mixed and the mixture was evaporated completely by nitrogen gas spraying. A solution (500 μL) of the same composition as the eluent for each compound was added to the tube, and then the solution was filtered through a Millex-LG membrane filter with a 0.2-μm pore size (Merck). The filtrate was double diluted with a solution of the same composition as the eluent for each compound, and the resulting solution was mixed to prepare the sample for measurement. For 1,7-dimethylxanthine, to standardize the content of the larval matrix, a mixture of larvae in the control or the vehicle control was added to each standard solution in a stepwise concentration to create each calibration curve.\nEach 5 μL sample was eluted in a mobile phase of methanol: water = 2:8 at a flow rate of 0.20 mL/min. 1,7-dimethylxanthine was monitored by using an ESI probe. Data were acquired in positive ion mode by using MRM. […]\nA calibration curve for each target substance (regression equation by using the least-squares method: Y = aX + b, where Y is the analytical response and X is the concentration of the target substance) was made by using four or five concentrations of standard solution. […] Then, all target substances were quantified by using the absolute calibration curve method and one concentration of standard solution. […]"}, "[6]": {"conditions": "cited from earlier work; for Detection of metabolite of midazolam (neither has been detected): adult zebrafish liver microsomes or embryonic or larval microsomes or homogenates at up to 7 dpf"}, "cyp3a65 mRNA": {"tested_on": "cyp3a65 mRNA", "conditions": "in vivo", "experimental": "as §1, §2"}, "[7]": {"conditions": "55 hpf larvae, exposure from 30 hpf, 1.0 ppb TCDD, 100 µM phenobarbital or rifampicin"}}, "note": "Counter-ions that a name gives are not always drawn. Like-named read-outs stand apart in the source and are kept apart here."}
{"compound": "CCOc1ccc(NC(C)=O)cc1", "note": "[phenacetin]", "values": [{"measurement": "Detection of human CYP1A2-mediated metabolites", "setting": "zebrafish; zebrafish 7 dpf incubated with the drug", "result": "detected"}]}
{"compound": "C[C@]12CC[C@H]3[C@@H](CCC4=CC(=O)CC[C@@]43C)[C@@H]1CC[C@@H]2O", "note": "[testosterone]", "values": [{"measurement": "Maximum test solution concentration that caused neither morphological nor behavioral abnormalities during exposure", "setting": "[1]", "result": 3.0, "unit": "mg/L"}, {"measurement": "Ce per embryo or larva (maximum value)", "setting": "[2]; 48 hpf, exposure to 3.0 mg/L from 5 hpf", "result": "12.8 ± 1.14", "unit": "ng"}, {"measurement": "Ce per one whole embryo or larva", "setting": "[2]", "result": "1.43 ± 0.11", "unit": "ng"}]}
{"compound": "CO[C@H]1/C=C/O[C@@]2(C)Oc3c(C)c(O)c4c(O)c(c(/C=N/N5CCN(C)CC5)c(O)c4c3C2=O)NC(=O)/C(C)=C\\C=C\\[C@H](C)[C@H](O)[C@@H](C)[C@@H](O)[C@@H](C)[C@H](OC(C)=O)[C@@H]1C", "note": "[rifampicin]", "values": [{"measurement": "cyp2r1 mRNA signal by in situ hybridization (location similar to liver)", "setting": "cyp2r1 mRNA; [7]", "result": "Positive signals"}, {"measurement": "cyp2N13 mRNA expression by in situ hybridization", "setting": "cyp2n13 mRNA", "result": "detected"}]}
{"compound": "O=c1cc(-c2ccccc2)oc2ccc3ccccc3c12", "note": "[β-naphthoflavone]", "values": [{"measurement": "Significant induction of cyp2n13, 2r1, 2y3, and 3a65 by qPCR", "setting": "[3]", "result": "not recognized"}]}
{"compound": "CCC1(c2ccccc2)C(=O)NC(=O)NC1=O", "note": "[phenobarbital]", "values": [{"measurement": "cyp2r1 mRNA signal by in situ hybridization (location similar to liver)", "setting": "cyp2r1 mRNA; in vivo", "result": "Positive signals"}, {"measurement": "cyp2N13 mRNA expression by in situ hybridization", "setting": "cyp2n13 mRNA", "result": "detected"}, {"measurement": "cyp2y3 mRNA by in situ hybridization (liver and intestine locations)", "setting": "cyp2y3 mRNA", "result": "detectable"}]}
{"compound": "Cn1c(=O)c2c(ncn2C)n(C)c1=O", "note": "[caffeine]", "values": [{"measurement": "Maximum test solution concentration that caused neither morphological nor behavioral abnormalities during exposure", "setting": "[1]", "result": 10, "unit": "mg/L"}, {"measurement": "log Kow", "setting": "[4]", "result": "−0.07"}, {"measurement": "Ce of caffeine per whole embryo or larva", "setting": "[5]; 50 hpf", "result": "2.69 ± 0.14", "unit": "ng"}, {"measurement": "Ce of caffeine per whole embryo or larva", "setting": "[5]; 120 hpf", "result": "5.15 ± 0.31", "unit": "ng"}, {"measurement": "Ce per one whole embryo or larva", "setting": "[2]", "result": "4.54 ± 0.10", "unit": "ng"}]}
{"compound": "OCc1ncc2n1-c1ccc(Cl)cc1C(c1ccccc1F)=NC2", "note": "[1-hydroxymidazolam]", "values": [{"measurement": "Detection of metabolite of midazolam (neither has been detected)", "setting": "[6]", "result": "Neither"}]}
{"compound": "Clc1cc2c(cc1Cl)Oc1cc(Cl)c(Cl)cc1O2", "note": "[TCDD, 2,3,7,8-tetrachlorodibenzo-p-dioxin]", "values": [{"measurement": "cyp2r1 mRNA signal by in situ hybridization (location similar to liver)", "setting": "cyp2r1 mRNA; [7]", "result": "Positive signals"}, {"measurement": "cyp3a65 mRNA signal by in situ hybridization", "setting": "cyp3a65 mRNA", "result": "signal appeared in some"}]}
{"compound": "COc1ccc2c(c1)[C@]13CCCC[C@@H]1[C@H](C2)N(C)CC3", "note": "[dextromethorphan]", "values": [{"measurement": "Detection of metabolites of the compound", "setting": "[6]; microsomes from whole embryos or larvae at 5, 24, 48, 72, 96, or 120 hpf", "result": "no metabolites of this compound have been detected"}]}
{"compound": "COc1ccc2c(c1)[C@@]13CCCC[C@H]1[C@@H](C2)NCC3", "note": "[3-Methoxymorphinan]", "values": [{"measurement": "Detection of metabolite of dextromethorphan", "setting": "[6]; adult zebrafish liver microsomes", "result": "detected"}]}
{"compound": "Nc1c2c(nc3ccccc13)CCCC2", "note": "[tacrine]", "values": [{"measurement": "Detection of human CYP1A2-mediated metabolites", "setting": "zebrafish; zebrafish, in vivo", "result": "detected"}]}
{"compound": "C[C@]12CC[C@H]3[C@@H](C[C@@H](O)C4=CC(=O)CC[C@@]43C)[C@@H]1CC[C@@H]2O", "note": "[6β-hydroxytestosterone]", "values": [{"measurement": "Detection of metabolite of testosterone", "setting": "zebrafish; zebrafish larvae at 7 dpf or zebrafish adults", "result": "detected"}, {"measurement": "Detection of metabolite in embryos or larvae", "setting": "[5]; 50 or 120 hpf, during exposure to testosterone", "result": "not detected"}]}
{"compound": "O=C(O)Cc1ccccc1Nc1c(Cl)cccc1Cl", "note": "[diclofenac, diclofenac sodium salt]", "values": [{"measurement": "Maximum test solution concentration that caused neither morphological nor behavioral abnormalities during exposure", "setting": "[1]", "result": 3.2, "unit": "mg/L"}, {"measurement": "log Kow", "setting": "[4]; pH 7.4", "result": 1.13}, {"measurement": "Ce per embryo or larva (maximum value)", "setting": "[2]; 72 hpf, exposure to 3.2 mg/L from 5 hpf", "result": "1.64 ± 0.15", "unit": "ng"}]}
{"compound": "Cc1ncc2n1-c1ccc(Cl)cc1C(c1ccccc1F)=NC2O", "note": "(stereo not drawn) [4-hydroxymidazolam]", "values": [{"measurement": "Detection of metabolite of midazolam (neither has been detected)", "setting": "[6]", "result": "Neither"}]}
